Source: patent US20030224942A1, “Alkylamino-1,3,5-triazines, processes for their preparation and their use as herbicides and plant growth regulators” (priority 2001, published 2003)

Assays:
[1] = system: Chenopodium spp., Papaver spp., Polygonum spp., Veronica spp. or Viola spp.; test: Post-emergence effect on weeds (greenhouse pot test, visual scoring); assay type: in vivo, monocotyledonous and dicotyledonous weeds; conditions: treated at three-leaf stage; visual scoring after about 3 to 4 weeks; application rate of 0.5 kg and less of active substance per hectare
[2] = system: Cyperus spp., Echinochloa spp., Digitaria spp., Sagitaria spp. and Scirpus spp.; test: Action on harmful plants in rice (paddy rice conditions, visual scoring); assay type: in vivo, typical rice weeds (gramineous and broad-leaved); conditions: applied into the dammed water, visual scoring about three weeks after application
Summary of the method: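 Under paddy conditions with 2-3 cm dammed water, transplanted and sown rice plus weeds were treated at three-leaf stage (E. crus-galli at 1.5 leaves). Pots stayed in greenhouse under optimum growth conditions for the test period, with visual assessment of damage.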

| SMILES | herbicidal activity post-emergence against harmful plants [1] | herbicidal activity against harmful plants which are typical for rice crops [2] |
| --- | --- | --- |
| C#Cc1c(F)cc(CNc2nc(N)nc(C(F)CC)n2)cc1F (stereo not drawn) [Product P26.352] | very good herbicidal activity | very good herbicidal activity |
| Cc1nc(N)nc(NC(C)c2cc(F)c(C(F)=C(F)F)c(F)c2)n1 (stereo not drawn) [Product P2.49] | very good herbicidal activity | very good herbicidal activity |
| CC#Cc1cc(C(C)Nc2nc(N)nc(C(C)(C)F)n2)cc(C#CC)c1F (stereo not drawn) [Product P17.450] | very good herbicidal activity | very good herbicidal activity |
| Cc1nc(N)nc(NCc2ccc(C3CC3)cc2)n1 [Product P1.1604] | very good herbicidal activity | very good herbicidal activity |
| CC(O)C#Cc1cc(C(C)Nc2nc(N)nc(C(C)C)n2)ccc1F (stereo not drawn) [Product P12.840] | very good herbicidal activity | very good herbicidal activity |
| C#Cc1cccc(CNc2nc(N)nc(C(C)C)n2)c1 [Product P11.1579] | very good herbicidal activity | very good herbicidal activity |
| Cc1nc(N)nc(NC(C)c2ccc(C3CC3)cc2)n1 (stereo not drawn) [Product P2.1604] | very good herbicidal activity | very good herbicidal activity |
| CC#Cc1c(F)cc(C(C)Nc2nc(N)nc(CC)n2)cc1F (stereo not drawn) [Product P7.428] | very good herbicidal activity | very good herbicidal activity |
| CC(Nc1nc(N)nc(C(C)(C)F)n1)c1cc(F)c(C2CC2)c(F)c1 (stereo not drawn) [Product P17.960] | very good herbicidal activity | very good herbicidal activity |
| CC(C)(F)c1nc(N)nc(NCc2ccc(F)c(C3CC3)c2)n1 [Product P16.916] | very good herbicidal activity | very good herbicidal activity |
| CCc1nc(N)nc(NCc2ccc(F)c(C(F)=C(F)F)c2)n1 [Product P6.5] | very good herbicidal activity | very good herbicidal activity |
| CCC(F)c1nc(N)nc(NC(C)c2ccc(C#CC(C)O)cc2)n1 (stereo not drawn) [Product P27.1601] | very good herbicidal activity | very good herbicidal activity |
| Cc1nc(N)nc(NC(C)c2cccc(C(F)=C(F)F)c2)n1 (stereo not drawn) [Product P2.1567] | very good herbicidal activity | very good herbicidal activity |
| C#Cc1cccc(C(C)Nc2nc(N)nc(C(F)CC)n2)c1 (stereo not drawn) [Product P27.1579] | very good herbicidal activity | very good herbicidal activity |
| C#Cc1cc(C(C)Nc2nc(N)nc(CC)n2)ccc1F (stereo not drawn) [Product P7.309] | very good herbicidal activity | very good herbicidal activity |
| CC(Nc1nc(N)nc(C(C)(C)F)n1)c1ccc(C2CC2)cc1 (stereo not drawn) [Product P17.1604] | very good herbicidal activity | very good herbicidal activity |
| C#Cc1cccc(CNc2nc(N)nc(C(F)CC)n2)c1 (stereo not drawn) [Product P26.1579] | very good herbicidal activity | very good herbicidal activity |
| C#Cc1cc(C#C)cc(C(C)Nc2nc(N)nc(CC)n2)c1 (stereo not drawn) [Product P7.369] | very good herbicidal activity | very good herbicidal activity |
| CC(F)c1nc(N)nc(NC(C)c2ccc(C(F)=C(F)F)cc2)n1 (stereo not drawn) [Product P22.1568] | very good herbicidal activity | very good herbicidal activity |
| CC(O)C#Cc1cccc(C(C)Nc2nc(N)nc(C(C)(C)F)n2)c1 (stereo not drawn) [Product P17.1600] | very good herbicidal activity | very good herbicidal activity |
| CC(C)(F)c1nc(N)nc(NCc2cc(F)c(C3CC3)c(F)c2)n1 [Product P16.960] | very good herbicidal activity | very good herbicidal activity |

| SMILES | herbicidal activity post-emergence against harmful plants [1] | herbicidal activity against harmful plants which are typical for rice crops [2] |
| --- | --- | --- |
| C#Cc1cccc(CNc2nc(N)nc(CC)n2)c1 [Product P6.1579] | very good herbicidal activity | very good herbicidal activity |
| CC#Cc1ccc(C(Nc2nc(N)nc(C(C)(C)F)n2)C2CC2)cc1 (stereo not drawn) [Product P19.1583] | very good herbicidal activity | very good herbicidal activity |
| C#Cc1ccc(C(C)Nc2nc(C)nc(N)n2)cc1F (stereo not drawn) [Product P2.1620] | very good herbicidal activity | very good herbicidal activity |
| C#Cc1cccc(C(C)Nc2nc(C)nc(N)n2)c1 (stereo not drawn) [Product P2.1579] | very good herbicidal activity | very good herbicidal activity |
| Cc1nc(N)nc(NC(c2cccc(C3CC3)c2)C2CC2)n1 (stereo not drawn) [Product P4.1603] | very good herbicidal activity | very good herbicidal activity |
| CC#Cc1cc(C(C)Nc2nc(N)nc(C(F)CC)n2)ccc1F (stereo not drawn) [Product P27.384] | very good herbicidal activity | very good herbicidal activity |
| C#Cc1cccc(C(Nc2nc(N)nc(C(C)F)n2)C2CC2)c1 (stereo not drawn) [Product P24.1579] | very good herbicidal activity | very good herbicidal activity |
| CCc1nc(N)nc(NCc2cc(F)c(C(F)=C(F)F)c(F)c2)n1 [Product P6.49] | very good herbicidal activity | very good herbicidal activity |
| Cc1nc(N)nc(NC(C)c2cccc(C3CC3)c2)n1 (stereo not drawn) [Product P2.1603] | very good herbicidal activity | very good herbicidal activity |
| CC(C)(F)c1nc(N)nc(NCc2cccc(C(F)=C(F)F)c2)n1 [Product P16.1567] | very good herbicidal activity | very good herbicidal activity |
| CCC(F)c1nc(N)nc(NC(c2cccc(C(F)=C(F)F)c2)C2CC2)n1 (stereo not drawn) [Product P29.1567] | very good herbicidal activity | very good herbicidal activity |
| CC(F)C#Cc1cc(C(C)Nc2nc(N)nc(C(C)F)n2)ccc1F (stereo not drawn) [Product P22.764] | very good herbicidal activity | very good herbicidal activity |
| C#Cc1c(F)cc(CNc2nc(N)nc(C(C)(C)F)n2)cc1F [Product P16.352] | very good herbicidal activity | very good herbicidal activity |
| CCC(F)c1nc(N)nc(NCc2ccc(F)c(C(F)=C(F)F)c2)n1 (stereo not drawn) [Product P26.5] | very good herbicidal activity | very good herbicidal activity |
| CC#Cc1cccc(C(Nc2nc(N)nc(C(F)CC)n2)C2CC2)c1 (stereo not drawn) [Product P29.1582] | very good herbicidal activity | very good herbicidal activity |
| C#Cc1cccc(CNc2nc(N)nc(C(C)F)n2)c1 (stereo not drawn) [Product P21.1579] | very good herbicidal activity | very good herbicidal activity |
| CC#Cc1cc(C(Nc2nc(N)nc(C(C)(C)F)n2)C2CC2)ccc1F (stereo not drawn) [Product P19.384] | very good herbicidal activity | very good herbicidal activity |
| C#Cc1c(C)cc(C(C)Nc2nc(N)nc(C(C)F)n2)cc1C (stereo not drawn) [Product P22.348] | very good herbicidal activity | very good herbicidal activity |
| CCc1nc(N)nc(NC(c2ccc(C(F)=C(F)F)cc2)C2CC2)n1 (stereo not drawn) [Product P9.1568] | very good herbicidal activity | very good herbicidal activity |
| CC#Cc1cccc(C(Nc2nc(N)nc(CC)n2)C2CC2)c1 (stereo not drawn) [Product P9.1582] | very good herbicidal activity | very good herbicidal activity |
| CC#Cc1ccc(C(Nc2nc(N)nc(CC)n2)C2CC2)cc1 (stereo not drawn) [Product P9.1583] | very good herbicidal activity | very good herbicidal activity |
